Measured values published in paper PMC10381170, “1,3,4-Oxadiazole and 1,3,4-Thiadiazole Nortopsentin Derivatives against Pancreatic Ductal Adenocarcinoma: Synthesis, Cytotoxic Activity, and Inhibition of CDK1” (Marine Drugs, 2023).
Values belong to the molecule of their own block, whether it stands above or below them.

Tests used:
Capan-1 cells = assay: SRB antiproliferative assay, Capan-1; assay type: cell-based, human; settings: for Cell growth percentage: Capan-1, 10 μM, 72 h exposure; for IC50: Homo sapiens, Capan-1, 72 h, mean ± SEM, read-out: Half-maximal inhibitory concentration (IC50)
Experimental: (§1) The cytotoxic activity of the nortopsentin derivatives 3b, 3e, 4c, 5b, and 6c on pancreatic cancer cells (BxPC-3, Panc-1, Suit-2, Capan-1, PaTu-T, primary PDAC-3 and resistant Panc-1-GR cells) was determined by the sulforhodamine B (SRB) chemosensitivity assay, as described previously. Cells were plated in 96-well flat-bottom plates at final concentrations ranging from 3000–5000 cells/well in 100 µL of medium. After a 24 h pre-incubation period, cells were treated with the compounds at nine screening concentrations (from 0.1 μM to 40 μM) in triplicate and incubated at 37 °C for 72 h. After the treatment, cells were fixed with 25 µL of cold 50% trichloroacetic acid (TCA) for each well and incubated at 4 °C for 1 h. Afterwards, plates were washed five times with demi-water and air-dried overnight. Then, the plates were stained with 50 µL of 0.4% SRB solution in 1% acetic acid for 15 min. The excess stain was rinsed off by placing the plates under running 1% acetic acid and allowed to dry at room temperature overnight. SRB staining was rinsed with 150 µL tris(hydroxymethyl)aminomethane solution pH = 8.8 (TRIS-base), and the optical density (OD) was read at 492 nm. Each assay was performed in triplicate and assays were repeated at least three times. The comparison of the average optical density of the growth in control wells with that in the sample wells allowed the estimation of the percentage of cell growth, using the following equation: % Cell Growth = (mean ODcompound − mean ODday zero plate)/(mean ODcells − mean ODday zero plate) × 100
(§2) The results obtained were adjusted by the day zero plate (wells containing cells growing for only 24 h) and normalized by the control cells (wells with untreated cells) to obtain the rate of viable cells.

PaTu-T cells = assay: SRB antiproliferative assay, PaTu-T; assay type: cell-based, human; settings: for Cell growth percentage: 10 μM, 72 h exposure; for IC50: Homo sapiens, 72 h, mean ± SEM, read-out: Half-maximal inhibitory concentration (IC50)
Experimental: as §1, §2

BxPC-3 cells [1] = assay: SRB antiproliferative assay, BxPC-3; assay type: cell-based, human; settings: for Cell growth percentage: BxPC-3, 10 μM, 72 h exposure; for IC50: Homo sapiens, BxPC-3, 72 h, mean ± SEM, read-out: Half-maximal inhibitory concentration (IC50)
Experimental: as §1, §2

PDAC-3 cells = assay: SRB antiproliferative assay, primary culture PDAC-3; assay type: cell-based, human; settings: for IC50: Homo sapiens, PDAC-3, 72 h, mean ± SEM, read-out: Half-maximal inhibitory concentration (IC50); for Cell growth percentage: PDAC-3, 10 μM, 72 h exposure
Experimental: as §1, §2

Panc-1 cells = assay: SRB antiproliferative assay, Panc-1; assay type: cell-based, human; settings: for Cell growth percentage: Panc-1, 10 μM, 72 h exposure; for IC50: Homo sapiens, Panc-1, 72 h, mean ± SEM, read-out: Half-maximal inhibitory concentration (IC50)
Experimental: as §1, §2

Suit-2 cells = assay: SRB antiproliferative assay, Suit-2; assay type: cell-based, human; settings: for IC50: Homo sapiens, Suit-2, 72 h, mean ± SEM, read-out: Half-maximal inhibitory concentration (IC50); for Cell growth percentage: Suit-2, 10 μM, 72 h exposure
Experimental: as §1, §2

Panc-1-GR cells = assay: SRB antiproliferative assay, gemcitabine-resistant Panc-1-GR; assay type: cell-based, human; settings: for Cell growth percentage: 10 μM, 72 h exposure; for IC50: Homo sapiens, 72 h, mean ± SEM, read-out: Half-maximal inhibitory concentration (IC50)
Experimental: as §1, §2

PDAC cells = assay: SRB antiproliferative assay, whole PDAC panel; assay type: cell-based; settings: Homo sapiens; seven PDAC models, 72 h; read-out: IC50 values, range over the PDAC cell panel
Experimental: as §1, with “The comparison of the average optical density of the growth in control wells with that in the sample wells allowed the estimation of the percentage of cell growth, using the following equation: % Cell Growth = (mean ODcompound − mean ODday zero plate)/(mean ODcells − mean ODday zero plate) × 100” left out

BxPC-3 cells [2] = assay: Scratch wound-healing assay, BxPC-3; assay type: cell-based, human; settings: BxPC-3, 8 h, 4 × IC50, untreated = 100% wound closure
Experimental: Cell migration was assessed using a wound-healing assay, as described previously. A total of 5 × 10^4 cells/well were seeded in a 96-well plate, to form a confluent monolayer. Scratches were created in confluent cell layers using the sterile scratch tool. The detached cells following scratch induction were removed and new medium was added to the wells. Cells were next treated with compounds 3b and 5b at a concentration of 4 × IC50. Cells growing in a complete medium were maintained at 37 °C with a supply of 5% CO2/95% air atmosphere and 100% relative humidity. The progress of wound closure was observed and documented at various time points (0th, 4th, 8th, 20th, and 24th h) using phase-contrast microscopy. Pictures of the plates were taken using the Universal Grab 6.3 software (DCILabs) from a computer connected to a Leica microscope with a JAI TMC-1327 camera.
The percentage of migration was calculated using the following equation:%Migration = (Width of the wound at T = 0 − Width of the wound at T = X)/(Width of the wound at T = 0) × 100

melting point: 302 °C
SMILES: Cn1cc(-c2nnc(-c3c[nH]c4ncccc34)o2)c2ccccc21 [3a, 3-[5-(1-methyl-1H-indol-3-yl)-1,3,4-oxadiazol-2-yl]-7-azaindole]

melting point: 268 °C
SMILES: Cn1cc(-c2nnc(-c3cn(C)c4ncccc34)o2)c2cc(F)ccc21 [3c, 3-[5-(5-fluoro-1-methyl-1H-indol-3-yl)-1,3,4-oxadiazol-2-yl]-1-methyl-7-azaindole]

melting point: 277 °C
SMILES: Cn1cc(-c2nnc(-c3cn(C)c4ncccc34)o2)c2cc(Br)ccc21 [3d, 3-[5-(5-bromo-1-methyl-1H-indol-3-yl)-1,3,4-oxadiazol-2-yl]-1-methyl-7-azaindole]

melting point: 244 °C
SMILES: Cn1cc(-c2nnc(-c3cn(C)c4ncc(Br)cc34)o2)c2ccccc21 [3e, 5-bromo-1-methyl-3-[5-(1-methyl-1H-indol-3-yl)-1,3,4-oxadiazol-2-yl]-7-azaindole]
Cell growth percentage (Capan-1 cells): 59.84%
Cell growth percentage (PaTu-T cells): 72.33%
Cell growth percentage (BxPC-3 cells [1]): 58.64%
IC50 (PDAC-3 cells): 23 ± 0.06 µM
Cell growth percentage (Panc-1 cells): 61.96%
IC50 (Suit-2 cells): 9.4 ± 4.3 µM
Cell growth percentage (Suit-2 cells): 54.94%

melting point: 275 °C
SMILES: Cn1cc(-c2nnc(-c3cn(C)c4ncc(Br)cc34)o2)c2cc(Br)ccc21 [3f, 5-bromo-3-[5-(5-bromo-1-methyl-1H-indol-3-yl)-1,3,4-oxadiazol-2-yl]-1-methyl-7-azaindole]

melting point: 310 °C
SMILES: Cn1cc(-c2nnc(-c3cn(C)c4ncc(Br)cc34)o2)c2cc(F)ccc21 [3g, 5-bromo-3-[5-(5-fluoro-1-methyl-1H-indol-3-yl)-1,3,4-oxadiazol-2-yl]-1-methyl-7-azaindole]

melting point: 272 °C
SMILES: c1ccc(-c2nnc(-c3c[nH]c4ncccc34)o2)cc1 [4a, 3-(5-phenyl-1,3,4-oxadiazol-2-yl)-7-azaindole]

melting point: 201 °C
SMILES: Cn1cc(-c2nnc(-c3ccccc3)o2)c2cccnc21 [4b, 1-methyl-3-(5-phenyl-1,3,4-oxadiazol-2-yl)-7-azaindole]

IC50 (Panc-1-GR cells): 10.8 ± 1.4 µM
melting point: 275 °C
IC50 (BxPC-3 cells [1]): 3.3 ± 2.4 µM
IC50 (Panc-1 cells): 13.4 ± 3.2 µM
SMILES: Brc1cnc2[nH]cc(-c3nnc(-c4ccccc4)o3)c2c1 [4c, 5-bromo-3-(5-phenyl-1,3,4-oxadiazol-2-yl)-7-azaindole]
Cell growth percentage (Capan-1 cells): 75.17%
IC50 (Capan-1 cells): 10.8 ± 0.67 µM
Cell growth percentage (Panc-1-GR cells): 98.62%
Cell growth percentage (PaTu-T cells): 31.22%
IC50 (PaTu-T cells): 9.7 ± 0.17 µM
Cell growth percentage (BxPC-3 cells [1]): 21.13%
Cell growth percentage (PDAC-3 cells): 96.60%
Cell growth percentage (Panc-1 cells): 74.33%
Cell growth percentage (Suit-2 cells): 60.18%

melting point: 236 °C
SMILES: Cn1cc(-c2nnc(-c3ccccc3)o2)c2cc(Br)cnc21 [4d, 5-bromo-1-methyl-3-(5-phenyl-1,3,4-oxadiazol-2-yl)-7-azaindole]

melting point: 246 °C
SMILES: Cn1cc(-c2nnc(-c3c[nH]c4ncccc34)s2)c2ccccc21 [5a, 3-[5-(1-methyl-1H-indol-3-yl)-1,3,4-thiadiazol-2-yl]-7-azaindole]

IC50 (Panc-1-GR cells): 9.8 ± 0.05 µM
melting point: 244 °C
IC50 (BxPC-3 cells [1]): 2.7 ± 0.68 µM
IC50 (Panc-1 cells): 3.5 ± 0.01 µM
SMILES: Cn1cc(-c2nnc(-c3cn(C)c4ncccc34)s2)c2ccccc21 [5b, 1-methyl-3-[5-(1-methyl-1H-indol-3-yl)-1,3,4-thiadiazol-2-yl]-7-azaindole]
Cell growth percentage (Capan-1 cells): 30.86%
IC50 (Capan-1 cells): 3.3 ± 0.61 µM
Cell growth percentage (Panc-1-GR cells): 40.65%
IC50 (PDAC cells): 1.9 to 10.6 µM
Cell growth percentage (PaTu-T cells): 27.73%
IC50 (PaTu-T cells): 3.4 ± 0.06 µM
Cell growth percentage (BxPC-3 cells [1]): 32.88%
IC50 (PDAC-3 cells): 10.6 ± 0.04 µM
Cell growth percentage (PDAC-3 cells): 55.90%
percentage of cells migrating (BxPC-3 cells [2]): 66%
Cell growth percentage (Panc-1 cells): 15.68%
IC50 (Suit-2 cells): 1.9 ± 0.27 µM
Cell growth percentage (Suit-2 cells): 19.46%

melting point: 292 °C
SMILES: Cn1cc(-c2nnc(-c3cn(C)c4ncccc34)s2)c2cc(Br)ccc21 [5c, 3-[5-(5-bromo-1-methyl-1H-indol-3-yl)-1,3,4-thiadiazol-2-yl]-1-methyl-7-azaindole]

melting point: 240 °C
SMILES: Cn1cc(-c2nnc(-c3cn(C)c4ncccc34)s2)c2cc(F)ccc21 [5d, 3-[5-(5-fluoro-1-methyl-1H-indol-3-yl)-1,3,4-thiadiazol-2-yl]-1-methyl-7-azaindole]

melting point: 200 °C
SMILES: COc1ccc2c(c1)c(-c1nnc(-c3cn(C)c4ncccc34)s1)cn2C [5e, 3-[5-(5-methoxy-1-methyl-1H-indol-3-yl)-1,3,4-thiadiazol-2-yl]-1-methyl-7-azaindole]

melting point: 233 °C
SMILES: Cn1cc(-c2nnc(-c3cn(C)c4ncc(Br)cc34)s2)c2ccccc21 [5f, 5-bromo-1-methyl-3-[5-(1-methyl-1H-indol-3-yl)-1,3,4-thiadiazol-2-yl]-7-azaindole]

melting point: 275 °C
SMILES: Cn1cc(-c2nnc(-c3cn(C)c4ncc(Br)cc34)s2)c2cc(Br)ccc21 [5g, 5-bromo-3-[5-(5-bromo-1-methyl-1H-indol-3-yl)-1,3,4-thiadiazol-2-yl]-1-methyl-7-azaindole]

melting point: 290 °C
SMILES: Cn1cc(-c2nnc(-c3cn(C)c4ncc(Br)cc34)s2)c2cc(F)ccc21 [5h, 5-bromo-3-[5-(5-fluoro-1-methyl-1H-indol-3-yl)-1,3,4-thiadiazol-2-yl]-1-methyl-7-azaindole]

melting point: 249 °C
SMILES: c1ccc(-c2nnc(-c3c[nH]c4ncccc34)s2)cc1 [6a, 3-(5-phenyl-1,3,4-thiadiazol-2-yl)-7-azaindole]

melting point: 191 °C
SMILES: Cn1cc(-c2nnc(-c3ccccc3)s2)c2cccnc21 [6b, 1-methyl-3-(5-phenyl-1,3,4-thiadiazol-2-yl)-7-azaindole]

melting point: 308 °C
IC50 (Panc-1 cells): 11.5 ± 1.2 µM
SMILES: Brc1cnc2[nH]cc(-c3nnc(-c4ccccc4)s3)c2c1 [6c, 5-bromo-3-(5-phenyl-1,3,4-thiadiazol-2-yl)-7-azaindole]
Cell growth percentage (Capan-1 cells): 76.76%
IC50 (Capan-1 cells): 12.6 ± 1.3 µM
Cell growth percentage (PaTu-T cells): 56.09%
IC50 (PaTu-T cells): 3.8 ± 1.8 µM
Cell growth percentage (BxPC-3 cells [1]): 54.59%
Cell growth percentage (PDAC-3 cells): 87.84%
Cell growth percentage (Panc-1 cells): 83.68%
IC50 (Suit-2 cells): 4.1 ± 0.9 µM
Cell growth percentage (Suit-2 cells): 29.80%

melting point: 188 °C
SMILES: Cn1cc(-c2nnc(-c3ccccc3)s2)c2cc(Br)cnc21 [6d, 5-bromo-1-methyl-3-(5-phenyl-1,3,4-thiadiazol-2-yl)-7-azaindole]
